# Patent US12252488B2 (Nimbus Saturn, Inc., priority 2021, dated 2025)
# Target: T1, HPK1 (Homo sapiens, UniProt Q92918)
# T1 construct: purchased Invitrogen
# Experiment: HPK1 biochemical enzyme assay (microfluidic mobility shift assay)
# Details: 1000 uM (1 mM) ATP; Caliper mobility shift; 1.5 nM HPK1; 30 min preincubation; read-out: HPK1 1000UMATP caliper IC50
# Method in brief: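 Microfluidic mobility-shift readout with 1.5 nM HPK1 in pH 7.4 buffer; compounds (ten-point curves, top 3 μM final) preincubated 30 min with enzyme/substrate. Reaction started with 1 mM ATP and 1 μM substrate plus 5 mM MgCl2, run 60 min at RT. IC50 values binned into activity classes.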
# T1 sequence (Q92918 whole entry): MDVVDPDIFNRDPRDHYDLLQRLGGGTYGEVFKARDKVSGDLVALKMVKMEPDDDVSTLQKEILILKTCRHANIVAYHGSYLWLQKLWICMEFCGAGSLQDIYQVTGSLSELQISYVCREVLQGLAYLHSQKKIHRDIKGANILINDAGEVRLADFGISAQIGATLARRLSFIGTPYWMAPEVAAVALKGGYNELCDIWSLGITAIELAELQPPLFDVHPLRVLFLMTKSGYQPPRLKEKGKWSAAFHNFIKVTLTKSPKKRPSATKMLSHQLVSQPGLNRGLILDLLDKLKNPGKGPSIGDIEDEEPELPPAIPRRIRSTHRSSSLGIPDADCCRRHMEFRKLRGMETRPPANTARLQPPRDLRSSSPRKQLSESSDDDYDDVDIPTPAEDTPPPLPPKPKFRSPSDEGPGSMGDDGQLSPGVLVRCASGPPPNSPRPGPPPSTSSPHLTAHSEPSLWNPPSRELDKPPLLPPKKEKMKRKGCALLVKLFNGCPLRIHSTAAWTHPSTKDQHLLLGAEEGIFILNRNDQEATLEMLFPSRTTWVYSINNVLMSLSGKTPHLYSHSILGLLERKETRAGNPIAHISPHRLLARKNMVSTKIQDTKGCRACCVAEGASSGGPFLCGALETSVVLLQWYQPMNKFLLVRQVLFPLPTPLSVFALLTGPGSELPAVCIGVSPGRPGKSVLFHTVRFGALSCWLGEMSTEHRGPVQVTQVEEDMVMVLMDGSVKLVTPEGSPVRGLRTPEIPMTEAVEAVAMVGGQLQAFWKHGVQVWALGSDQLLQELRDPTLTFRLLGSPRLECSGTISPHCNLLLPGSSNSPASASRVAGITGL
row,IC50,Compound
1,≤ 100 nM,"COc1cc(-c2cc(Nc3ccc(N4CCCCC4)cn3)c3c(=O)[nH]ccc3n2)c(F)cc1C(=O)N1CCCCC1 [I-232, 2-[2-fluoro-5-methoxy-4-(piperidine-1-carbonyl)phenyl]-4-[[5-(1-piperidyl)-2-pyridyl]amino]-6H-1,6-naphthyridin-5-one]"
2,≤ 100 nM,"O=c1[nH]ccc2nc(-c3c(F)ccc4c3CCNC4)cc(Nc3cc(C4CCOC4)n[nH]3)c12 (centres unmarked) [I-265, 2-(6-fluoro-1,2,3,4-tetrahydro-isoquinolin-5-yl)-4-[(3-THF-3-yl-1H-pyrazol-5-yl)amino]-6H-1,6-naphthyridin-5-one]"
3,> 1000 nM,"O=c1[nH]ccc2nc(-c3cc(CN4CC5(CCCO5)C4)ccc3F)cc(Nc3ccc(N4CCC(O)CC4)cn3)c12 [I-255, 2-[2-fluoro-5-(5-oxa-2-azaspiro [3.4]octan-2-ylmethyl)phenyl]-4-[[5-(4-hydroxy-1-piperidyl)-2-pyridyl]amino]-6H-1,6-naphthyridin-5-one]"
4,≤ 100 nM,"O=C(Nc1ccc(-c2cc(Nc3ccc(N4CCC(O)CC4)cn3)c3c(=O)[nH]ccc3n2)c(F)c1)[C@@H]1C[C@H]2CC[C@@H]1C2 (single isomer, unassigned) [I-277]"
5,≤ 100 nM,"Cn1ccnc1N1CCN(c2cc(Nc3ccc(N4CCC(O)CC4)cn3)c3c(=O)[nH]ccc3n2)CC1 [I-271, 4-[[5-(4-hydroxy-1-piperidyl)-2-pyridyl]amino]-2-[4-(1-methyl-imidazol-2-yl)piperazin-1-yl]-6H-1,6-naphthyridin-5-one]"
6,100 to 1000 nM,"O=c1[nH]ccc2nc(N3CCC4(CCCN4)CC3)cc(Nc3ccc(N4CCC(O)CC4)cn3)c12 [I-236, 2-(1,8-diazaspiro [4.5]decan-8-yl)-4-[[5-(4-hydroxy-1-piperidyl)-2-pyridyl]amino]-6H-1,6-naphthyridin-5-one]"
7,≤ 100 nM,"O=C(Nc1ccc(-c2cc(Nc3ccc(N4CCC(O)CC4)cn3)c3c(=O)[nH]ccc3n2)c(F)c1)[C@H]1C[C@H]2CC[C@@H]1C2 (single isomer, unassigned) [I-275]"
8,100 to 1000 nM,"CN1C(=O)Cc2cc(-c3cc(Nc4ccc(N5CCC(O)CC5)cn4)c4c(=O)[nH]ccc4n3)cnc21 [I-213, 4-[[5-(4-hydroxy-1-piperidyl)-2-pyridyl]amino]-2-(1-methyl-2-oxo-3H-pyrrolo[2,3-b]pyridin-5-yl)-6H-1,6-naphthyridin-5-one]"
9,> 1000 nM,"O=c1[nH]ccc2nc(-c3ccc(OCc4ccncc4)cc3F)cc(Nc3cc(C4CCOC4)n[nH]3)c12 (centres unmarked) [I-257, 2-[2-fluoro-4-(4-pyridyl-methoxy)phenyl]-4-[(3-THF-3-yl-1H-pyrazol-5-yl)amino]-6H-1,6-naphthyridin-5-one]"
10,100 to 1000 nM,"COc1cc(-c2cc(Nc3ccc(N4CCC(O)CC4)cn3)c3c(=O)[nH]ccc3n2)c(F)c(F)c1C(=O)N1CCCCC1 [I-241, 2-[2,3-difluoro-5-methoxy-4-(piperidine-1-carbonyl)phenyl]-4-[[5-(4-hydroxy-1-piperidyl)-2-pyridyl]amino]-6H-1,6-naphthyridin-5-one]"
11,≤ 100 nM,"COc1cc(F)c(-c2cc(Nc3ccc(N4CCC(O)CC4)cn3)c3c(=O)[nH]ccc3n2)cc1CN1CCCCC1 [I-202, 2-[2-fluoro-4-methoxy-5-(1-piperidyl-methyl)phenyl]-4-[[5-(4-hydroxy-1-piperidyl)-1-2-pyridyl]amino]-6H-1,6-naphthyridin 5-one]"

# Second part, the compound before the results:
row,Compound,IC50
1,"COc1cc(-c2cc(Nc3ccc(N4C[C@H]5CC[C@@H](C4)O5)cn3)c3c(=O)[nH]ccc3n2)c(F)cc1C(=O)N1CCCCC1 [I-170, 2-[2-fluoro-5-methoxy-4-(piperidine-1-carbonyl)phenyl]-4-[[5-[(1R,5S)-8-oxa-3-azabicyclo [3.2.1]octan-3-yl]-2-pyridyl]amino]-6H-1,6-naphthyridin-5-one]",100 to 1000 nM
2,"O=c1[nH]cnc2nc(-c3c(F)cccc3F)cc(Nc3ccc(N4CCC(O)CC4)cn3)c12 [I-11, 7-(2,6-difluorophenyl)-5-[[5-(4-hydroxy-1-piperidyl)-2-pyridyl]amino]-3H-pyrido[2,3-d]pyrimidin-4-one]",100 to 1000 nM
3,"COc1ccc(F)c(-c2cc(Nc3ccc(N4CCNCC4)cn3)c3c(=O)[nH]ccc3n2)c1F [I-91, 2-(2,6-difluoro-3-methoxy-phenyl)-4-[(5-piperazin-1-yl-2-pyridyl)amino]-6H-1,6-naphthyridin-5-one]",≤ 100 nM
4,"O=c1[nH]ccc2cc(-c3c(F)cccc3F)nc(Nc3ccc(N4CCC(O)CC4)cn3)c12 [I-8, 6-(2,6-difluoro-phenyl)-8-[[5-(4-hydroxy-1-piperidyl)-2-pyridyl]amino]-2H-2,7-naphthyridin-1-one]",100 to 1000 nM
5,"COc1c(C(=O)N2CCCCC2)ccc(-c2cc(Nc3ccc(N4CCC(O)CC4)cn3)c3c(=O)[nH]ccc3n2)c1F [I-166, 2-[2-fluoro-3-methoxy-4-(piperidine-1-carbonyl)phenyl]-4-[[5-(4-hydroxy-1-piperidyl)-2-pyridyl]amino]-6H-1,6-naphthyridin-5-one]",≤ 100 nM
6,"CC(C)c1ccc(F)c(-c2cc(Nc3ccc(N4CCN(C)CC4)cn3)c3c(=O)[nH]ccc3n2)c1 [I-109, 2-(2-fluoro-5-isopropyl-phenyl)-4-[[5-(4-methyl-piperazin-1-yl)-2-pyridyl]amino]-6H-1,6-naphthyridin-5-one]",≤ 100 nM
7,"COc1cc(-c2cc(Nc3ccc(N4CCC(O)CC4)cn3)c3c(=O)[nH]cc(C)c3n2)c(F)cc1C(=O)N1CCCCC1 [I-163, 2-[2-fluoro-5-methoxy-4-(piperidine-1-carbonyl)phenyl]-4-[[5-(4-hydroxy-1-piperidyl)-2-pyridyl]amino]-8-methyl-6H-1,6-naphthyridin-5-one]",> 1000 nM
8,"CC(=O)NC1CCCN(c2cc(Nc3ccc(N4CCC(O)CC4)cn3)c3c(=O)[nH]ccc3n2)C1 (centres unmarked) [I-78, N-[1-[4-[[5-(4-hydroxy-1-piperidyl)-2-pyridyl]amino]-5-oxo-6H-1,6-naphthyridin-2-yl]-3-piperidyl] acetamide]",> 1000 nM
9,"CC(C)c1ccc(F)c(-c2cc(Nc3ccc(N4CCC5(CCOCC5)CC4)cn3)c3c(=O)[nH]ccc3n2)c1 [I-121, 2-(2-fluoro-5-isopropyl-phenyl)-4-[[5-(3-oxa-9-azaspiro [5.5]undecan-9-yl)-2-pyridyl]amino]-6H-1,6-naphthyridin-5-one]",≤ 100 nM
10,"O=c1[nH]ccc2nc(-c3cc(CN4CCCC4)ccc3F)cc(Nc3ccc(N4CCC(O)CC4)cn3)c12 [I-177, 2-[2-fluoro-5-(pyrrolidin-1-ylmethyl)phenyl]-4-[[5-(4-hydroxy-1-piperidyl)-2-pyridyl]amino]-6H-1,6-naphthyridin-5-one]",≤ 100 nM
11,"Cc1cccc(-c2cc(Nc3ccc(N4CCC(O)CC4)cn3)c3c(=O)[nH]ccc3n2)c1F [I-68, 2-(2-fluoro-3-methyl-phenyl)-4-[[5-(4-hydroxy-1-piperidyl)-2-pyridyl]amino]-6H-1,6-naphthyridin-5-one]",100 to 1000 nM
12,"Cc1cc(-c2cc(Nc3ccc(N4CCC(O)CC4)cn3)c3c(=O)[nH]ccc3n2)c(F)cc1CN1CCCCC1 [I-194, 2-[2-fluoro-5-methyl-4-(1-piperidyl-methyl)phenyl]-4-[[5-(4-hydroxy-1-piperidyl)-2-pyridyl]amino]-6H-1,6-naphthyridin-5-one]",≤ 100 nM
13,"COc1ccc(F)c(-c2cc(Nc3ccc(N4CCC(O)CC4)cn3)c3c(=O)[nH]ccc3n2)c1F [I-92, 2-(2,6-difluoro-3-methoxyphenyl)-4-((5-(4-hydroxypiperidin-1-yl)pyridin-2-yl)amino)-1,6-naphthyridin-5(6H)-one]",100 to 1000 nM
14,"O=c1[nH]ccc2nc(N3CC[C@@H](O)C3)cc(Nc3ccc(N4CCC(O)CC4)cn3)c12 [I-87, 4-[[5-(4-hydroxy-1-piperidyl)-2-pyridyl]amino]-2-[(3R)-3-hydroxy-pyrrolidin-1-yl]-6H-1,6-naphthyridin-5-one]",100 to 1000 nM
15,"CC(=O)N1CCC(c2cc(Nc3ccc(N4CCC(O)CC4)cn3)c3c(=O)[nH]ccc3n2)CC1 [I-63, 2-(1-acetyl-4-piperidyl)-4-[[5-(4-hydroxy-1-piperidyl)-2-pyridyl]amino]-6H-1,6-naphthyridin-5-one]",100 to 1000 nM
16,"CN1CCN(c2ccc(Nc3cc(-c4ccc(NC(=O)C5CCCCC5)cc4F)nc4cc[nH]c(=O)c34)nc2)CC1 [I-184, N-[3-fluoro-4-[4-[[5-(4-methyl-piperazin-1-yl)-2-pyridyl]amino]-5-oxo-6H-1,6-naphthyridin-2-yl]phenyl] cyclohexane carboxamide]",> 1000 nM
17,"O=C(c1ccc(-c2cc(Nc3ccc(N4CCC(O)CC4)cn3)c3c(=O)[nH]ccc3n2)c(F)c1)N1CC2C(C1)C2(F)F (centres unmarked) [I-138, 2-[4-(6,6-difluoro-3-azabicyclo [3.1.0]hexane-3-carbonyl)-2-fluoro-phenyl]-4-[[5-(4-hydroxy-1-piperidyl)-2-pyridyl]amino]-6H-1,6-naphthyridin-5-one]",100 to 1000 nM
18,"CCN(C)C(=O)C(C)(C)c1ccc(Nc2cc(-c3c(F)cccc3F)nc3cc[nH]c(=O)c23)nc1 [I-52, 2-[6-[[2-(2,6-difluoro-phenyl)-5-oxo-6H-1,6-naphthyridin-4-yl]amino]-3-pyridyl]-N-ethyl-N,2-dimethyl-propanamide]",100 to 1000 nM
19,"O=c1[nH]ccc2nc(-c3cccc(CN4CCOCC4)c3F)cc(Nc3ccc(N4CCC(O)CC4)cn3)c12 [I-171, 2-[2-fluoro-3-(morpholino-methyl)phenyl]-4-[[5-(4-hydroxy-1-piperidyl)-2-pyridyl]amino]-6H-1,6-naphthyridin-5-one]",100 to 1000 nM
20,"CC(=O)c1cc(Nc2ccc(N3CCC(O)CC3)cn2)c2c(=O)[nH]ccc2n1 [I-47, 2-acetyl-4-[[5-(4-hydroxy-1-piperidyl)-2-pyridyl]amino]-6H-1,6-naphthyridin-5-one]",≤ 100 nM
21,"CC(C)Oc1ccc(F)c(-c2cc(Nc3ccc(N4CCC(O)CC4)cn3)c3c(=O)[nH]ccc3n2)c1 [I-67, 2-(2-fluoro-5-isopropoxy-phenyl)-4-[[5-(4-hydroxy-1-piperidyl)-2-pyridyl]amino]-6H-1,6-naphthyridin-5-one]",100 to 1000 nM
